According to patent US5998430A, “Use of trospium chloride and 2-component system for the same” (Dr. R. Pfleger Chemische Fabrik GmbH, priority 1996, dated 1999):

What was measured:
[1] = test system: bladder tissue; details: rabbits; intravesical instillation of crushed tablets; cited from earlier work
[2] = compared with administration of equivalent oral dosages; cited from earlier work
[3] = plasma concentrations of trospium chloride after intravesicular instillation; type: in vivo; details: intravesicular instillation of 7.5 mg trospium chloride/20 ml; period of 12 hours; sensitive, validated measuring method
Experimental: It is particularly advantageous to prepare said aqueous solution with a pH-value≥4.5 immediately prior to administration, in order to prevent any decomposition of the active agent trospium chloride. In particular, the pH-value of the inventive formulation is 5.0 to 7.5, so that it falls entirely within the pH-value range of the normal urine of healthy humans. […] This was confirmed by measuring plasma concentrations of trospium chloride after intravesicular instillation of 7.5 mg trospium chloride/20 ml for a period of 12 hours.

[4] = test system: bladder tissue; assay: study on beagles concerning local compatibility following once daily intravesical instillation over 4 weeks; type: in vivo; details: selected formulation
[5] = test system: smooth muscle cells of the detrusor; assay: internal investigations: direct (musculotropic) action on smooth muscle cells of the detrusor; type: cell-based
Excerpt: It will be appreciated that the active agent trospium chloride acts as an anticholinergic, i.e. it occupies receptors of the parasympathetic nervous system, without causing the effects induced by the natural neurotransmitter acetyl choline (neurotropic action). The anticholinergic power of trospium chloride in vitro is 20 times greater than that of oxybutynin (Eckert R. E., Wilhelm A., Schwantes U., Utz J. Alloussi S., Trautwein W. & Ziegler M., Modulation of the cytoplasmic Ca^2+ concentration of isolated myocytes of the detrusor vesicae by anticholinergics, Akt. Urol. 26, 46, 1995). […] These musculotropic characteristics are particularly important in the case of direct administration to the bladder.

[6] = stability of the aqueous solution during storage and transportation; type: physicochemical
Experimental: Accordingly, the invention provides for an aqueous trospium chloride solution prepared from two components, as described above. For the aqueous solution to remain stable for a long time during storage and transportation, the pH-value should be lower than 4.5. However, such a solution has never been considered suitable for administration to the bladder and is also unacceptable for physiological reasons. Therefore the invention assumes that the aqueous solution is prepared prior to administration with a pH-value equal to or greater than 4.5, in order to exclude from the outset ageing, storage and transportation problems.

[7] = test system: isolated myocytes of the detrusor vesicae; details: greater than that of oxybutynin; cited from earlier work
[8] = oral and rectal administration forms; cited from earlier work

| SMILES | inflammatory processes in the region of the bladder tissue (histological evaluation) [1] | absorption following intravesicular instillation [2] | plasma concentrations [3] | local compatibility (local adverse effects to the bladder tissue) [4] | direct action on smooth muscle cells of the detrusor (basal Ca^2+ flow) [5] | pH-value for the aqueous solution to remain stable for a long time [6] | anticholinergic power in vitro, relative to oxybutynin [7] | absorption from the intestinal lumen into the system [8] |
| --- | --- | --- | --- | --- | --- | --- | --- | --- |
| CCN(CC)CC#CCOC(=O)C(O)(c1ccccc1)C1CCCCC1 (centres unmarked) [oxybutynin] | Inflammatory processes were detected | absorbed to a greater extent | – | – | – | – | – | – |
| O=C(O[C@H]1C[C@H]2CC[C@@H](C1)[N+]21CCCC1)C(O)(c1ccccc1)c1ccccc1 [trospium chloride] | – | – | At no time plasma concentrations were detected that were above the detection limit | did not lead to local adverse effects to the bladder tissue | inhibition of the basal Ca^2+ flow | lower than 4.5 | 20 times | poor absorption |
